In US20250214967A1, “FAK DEGRADERS, PHARMACEUTICAL COMPOSITIONS, AND THERAPEUTIC APPLICATIONS” (Berrybio (Shanghai) Limited, priority 2022, published 2025):

Legend:
FAK [1] = target: T1, FAK (Homo sapiens (Human), UniProt Q05397); assay: FAK Kinase Assay (TR-FRET, LanthaScreen); format: biochemical; details: FAK 1 nM, ATP 6.8 μM, fluorescein-polyGT 0.2 μM, 30 min; read-out: IC50, FAK Inhibition
Protocol: The inhibitory activity of a compound against FAK was determined in a buffer containing 5 mM HEPES, pH 7.5, 0.01% Triton, 0.5 mM EGTA, and 0.01% BRIJ™-35 in a 384-well assay plate. The assay was carried out in the presence of the FAK at 1 nM and ATP at 6.8 μM using fluorescein-polyGT (0.2 μM) as an FAK substrate. Each assay mixture was incubated at room temperature for 30 min. A LANTHASCREEN® Tb-PY20 antibody was added to each well to stop the enzymatic reaction. The plate was incubated at room temperature for 60 min before reading on an ENVISION using TR-FRET module (excitation at 340 nm and emission at 520 nm and 495 nm).
Target sequence in this assay (Q05397 whole entry, species assumed): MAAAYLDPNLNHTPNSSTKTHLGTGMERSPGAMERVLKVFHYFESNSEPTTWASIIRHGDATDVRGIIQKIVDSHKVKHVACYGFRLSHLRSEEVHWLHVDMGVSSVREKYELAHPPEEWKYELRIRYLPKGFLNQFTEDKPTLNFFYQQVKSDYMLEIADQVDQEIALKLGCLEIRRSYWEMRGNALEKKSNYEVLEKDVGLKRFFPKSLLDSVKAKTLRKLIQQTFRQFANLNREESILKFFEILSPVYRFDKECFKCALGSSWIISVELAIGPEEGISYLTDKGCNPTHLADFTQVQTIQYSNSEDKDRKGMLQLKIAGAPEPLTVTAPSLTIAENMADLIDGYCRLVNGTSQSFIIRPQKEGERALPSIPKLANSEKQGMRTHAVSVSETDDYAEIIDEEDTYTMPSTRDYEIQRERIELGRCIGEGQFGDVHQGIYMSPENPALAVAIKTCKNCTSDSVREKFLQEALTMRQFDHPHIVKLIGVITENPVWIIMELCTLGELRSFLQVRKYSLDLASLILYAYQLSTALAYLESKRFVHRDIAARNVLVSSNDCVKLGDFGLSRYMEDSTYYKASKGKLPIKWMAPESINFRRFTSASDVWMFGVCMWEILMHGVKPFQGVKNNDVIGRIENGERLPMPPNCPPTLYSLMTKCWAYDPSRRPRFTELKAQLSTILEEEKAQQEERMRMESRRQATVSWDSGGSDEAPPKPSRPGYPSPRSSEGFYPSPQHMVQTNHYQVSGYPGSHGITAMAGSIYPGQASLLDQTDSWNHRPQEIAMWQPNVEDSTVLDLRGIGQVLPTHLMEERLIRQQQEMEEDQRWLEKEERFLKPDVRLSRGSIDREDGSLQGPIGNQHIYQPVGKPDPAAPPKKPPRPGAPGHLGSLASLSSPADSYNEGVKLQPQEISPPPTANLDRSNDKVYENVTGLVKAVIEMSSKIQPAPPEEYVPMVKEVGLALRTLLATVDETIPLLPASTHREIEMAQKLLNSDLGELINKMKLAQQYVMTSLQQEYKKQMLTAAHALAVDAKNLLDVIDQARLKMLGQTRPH

FAK [2] = target: T1, FAK; assay: FAK Degradation Assay (Western blot, FAK/GAPDH); format: cell-based; details: MDA-MB-231 cells, 24 h treatment, Western blot normalized to DMSO; for DC50: read-out: DC50 (half-maximal degradation concentration), FAK Degradation; for Dmax: read-out: Dmax (maximal degradation), FAK Degradation
Protocol: H2122 (4×10^5), MIA PaCa-2 (6×10s), or MDA-MB-231 cells (6×10^5) per well were seeded into a 6-well plate containing 2 mL of complete culture medium (RPMI-1640 for H2122 and MDA-MB-231, and DMEM/F12 for MIA PaCa-2, supplemented with 10% FBS and 1% penicillin/streptomycin). The cells were cultured overnight at 37° C. in the presence of 5% C02 before treated with a compound in a series of concentrations for 24 h. The cells were then washed with ice-cold Dulbecco's phosphate-buffered saline (DPBS). A radioimmuno-precipitation assay (RIPA) buffer was added to lyse the cells on ice for 20 min. The cells were then scrapped using cell scraper and collected in a 1.5 mL tube, which was centrifuged at 14,000 g and 4° C. for 15 min. The supernatant was collected and the total protein concentration of each sample was determined using a PIERCE™ BCA protein assay kit. The supernatant was diluted to the same protein concentration with the RIPA buffer after the BCA assay. Samples of the same protein amount were mixed with 4× a lithium dodecyl sulfate (LDS) sample buffer and boiled at 95° C. for 5 min. The denatured samples were used for electrophoresis.
For Western blot, the same volume containing ˜50 μg protein for each sample was loaded onto 4-12% Bis-Tris protein gel. The gel was run at 80 V for 0.5 h and at 120 V for 1 h. When the electrophoresis was completed, an IBLOT™ 2 gel transfer device was used to transfer FAK and GAPDH proteins at 20 V for 7 min. All the membranes were blocked in 5% nonfat dry milk in a TBST buffer at RT for 1 h and then incubated with primary antibodies (anti-FAK and anti-GAPDH) in a TBST buffer containing 5% BSA at 4° C. overnight. The membranes were washed with the TBST buffer and then incubated with secondary antibodies (goat anti-rabbit IgG H&L for FAK and goat anti-mouse IgG H&L for GAPDH) at room temperature for 1 h. Blots were visualized using an IMAGEQUANT™ LAS-4000. The chemiluminescent signals from ECL™ Western blotting reagents were captured. The band integrated intensity from each 16-bit blot image was used for quantitation. The FAK/GAPDH signal ratios of each sample were normalized using DMSO as a control and the normalized data for each compound were used to obtain its half-maximal degradation concentration (DC50) and maximal degradation (Dmax).
Target sequence in this assay (Q05397 whole entry): as the sequence (Q05397 whole entry, species assumed) above

Structure (SMILES) | IC50 (FAK [1]) | DC50 (FAK [2]) | Dmax (FAK [2])
Cc1cc(OCCOCCOCCOc2ccc3c(c2)C(=O)N(C2CCC(=O)NC2=O)C3=O)ccc1Nc1ncc(C(F)(F)F)c(NCc2cccc(N(C)S(C)(=O)=O)c2)n1 (stereo not shown) [Compound A1, N-(3-(((2-((4-(2-(2-(2-((2-(2,6-dioxopiperidin-3-yl)-1,3-dioxoisoindolin-5-yl)oxy)ethoxy)ethoxy)ethoxy)-2-methylphenyl)amino)-5-(trifluoromethyl)pyrimidin-4-yl)-amino)methyl)phenyl)-N-methylmethanesulfonamide] | 4500 pM | 7000 pM | 89%
CNC(=O)c1ccccc1Nc1cc(Nc2ccc(CN[C@H]3CCN(c4ccc5c(c4)C(=O)N(C4CCC(=O)NC4=O)C5=O)C3)cc2)ncc1C(F)(F)F (stereo partly drawn) [Compound A33, 2-((2-((4-((((3S)-1-(2-(2,6-Dioxopiperidin-3-yl)-1,3-dioxoisoindolin-5-yl)-pyrrolidin-3-yl)amino)methyl)phenyl)amino)-5-(trifluoromethyl)pyridin-4-yl)amino)-N-methylbenzamide] | – | 860 pM | 94%
CS(=O)(=O)c1ccccc1Nc1cc(Nc2ccc(CNC3CCN(c4ccc5c(c4)C(=O)N(C4CCC(=O)NC4=O)C5=O)CC3)cc2)ncc1C(F)(F)F (stereo not shown) [Compound A34, 2-(2,6-Dioxopiperidin-3-yl)-5-(4-((4-((4-((2-(methylsulfonyl)phenyl)amino)-5-(trifluoromethyl)pyridin-2-yl)amino)benzyl)amino)piperidin-1-yl)isoindoline-1,3-dione] | – | 25000 pM | 83%
CN(c1ccccc1CNc1cc(Nc2ccc(CNC3CCN(c4ccc5c(c4)C(=O)N(C4CCC(=O)NC4=O)C5=O)CC3)c(F)c2)ncc1C(F)(F)F)S(C)(=O)=O (stereo not shown) [Compound A35, N-(2-(((2-((4-(((1-(2-(2,6-Dioxopiperidin-3-yl)-1,3-dioxoisoindolin-5-yl)-piperidin-4-yl)amino)methyl)-3-fluorophenyl)amino)-5-(trifluoromethyl)pyridin-4-yl)amino)-methyl)phenyl)-N-methylmethanesulfonamide] | – | 8100 pM | 95%
CN(c1nccnc1CNc1nc(Nc2ccc(CN[C@@H]3CCN(c4ccc5c(c4)C(=O)N(C4CCC(=O)NC4=O)C5=O)C[C@@H]3F)cc2)ncc1C(F)(F)F)S(C)(=O)=O (stereo partly drawn) [Compound A36, N-(3-(((2-((4-((((3S,4R)-1-(2-(2,6-Dioxopiperidin-3-yl)-1,3-dioxoisoindolin-5-yl)-3-fluoropiperidin-4-yl)amino)methyl)phenyl)amino)-5-(trifluoromethyl)pyrimidin-4-yl)amino)-methyl)pyrazin-2-yl)-N-methylmethanesulfonamide] | – | 830 pM | 94%
CNC(=O)c1ccccc1Nc1nc(Nc2ccc(CNC3CCN(c4ccc5c(c4)C(=O)N(C4CCC(=O)NC4=O)C5=O)CC3)c(F)c2)ncc1C(F)(F)F (stereo not shown) [Compound A37, 2-((2-((4-(((1-(2-(2,6-dioxopiperidin-3-yl)-1,3-dioxoisoindolin-5-yl)piperidin-4-yl)-amino)methyl)-3-fluorophenyl)amino)-5-(trifluoromethyl)pyrimidin-4-yl)amino)-N-methyl-benzamide] | – | 860 pM | 94%
CNC(=O)c1ccccc1Nc1nc(Nc2ccc3c(c2)CC(=O)N3CC2CCN(c3ccc4c(c3)C(=O)N(C3CCC(=O)NC3=O)C4=O)CC2)ncc1C(F)(F)F (stereo not shown) [Compound A38, 2-((2-((1-((1-(2-(2,6-dioxopiperidin-3-yl)-1,3-dioxoisoindolin-5-yl)piperidin-4-yl)methyl)-2-oxoindolin-5-yl)amino)-5-(trifluoromethyl)pyrimidin-4-yl)amino)-N-methylbenzamide] | – | 840 pM | 88%
CNC(=O)c1ccccc1Nc1nc(Nc2ccc(CN[C@@H]3CCN(c4ccc5c(c4)C(=O)N(C4CCC(=O)NC4=O)C5=O)C[C@@H]3F)cc2)ncc1C(F)(F)F (stereo partly drawn) [Compound A39, 2-((2-((4-((((3S,4R)-1-(2-(2,6-Dioxopiperidin-3-yl)-1,3-dioxoisoindolin-5-yl)-3-fluoropiperidin-4-yl)amino)methyl)phenyl)amino)-5-(trifluoromethyl)pyrimidin-4-yl)amino)-N-methylbenzamide] | – | 710 pM | 89%
CNC(=O)c1ccccc1Nc1nc(Nc2ccc(CCN3CCN(c4ccc5c(c4)C(=O)N(C4CCC(=O)NC4=O)C5=O)CC3)c(F)c2)ncc1C(F)(F)F (stereo not shown) [Compound A44, 2-((2-((4-(2-(4-(2-(2,6-dioxopiperidin-3-yl)-1,3-dioxoisoindolin-5-yl)piperazin-1-yl)ethyl)-3-fluorophenyl)amino)-5-(trifluoromethyl)pyrimidin-4-yl)amino)-N-methylbenzamide] | – | 960 pM | 92%
COc1cc(CNC2CCN(c3ccc4c(c3)C(=O)N(C3CCC(=O)NC3=O)C4=O)CC2)c(F)cc1Nc1ncc(C(F)(F)F)c(Oc2cccc3c2C(=O)N(C)C3)n1 (stereo not shown) [Compound A52, 2-(2,6-Dioxopiperidin-3-yl)-5-(4-((2-fluoro-5-methoxy-4-((4-((2-methyl-3-oxoisoindolin-4-yl)oxy)-5-(trifluoromethyl)pyrimidin-2-yl)amino)benzyl)amino)piperidin-1-yl)-isoindoline-1,3-dione] | – | 780 pM | 95%
CNC(=O)c1ccccc1Nc1cc(Nc2cc(F)c(CNC3CCN(c4ccc5c(c4)C(=O)N(C4CCC(=O)NC4=O)C5=O)CC3)cc2OC)ncc1C(F)(F)F (stereo not shown) [Compound A54, 2-((2-((4-(((1-(2-(2,6-Dioxopiperidin-3-yl)-1,3-dioxoisoindolin-5-yl)piperidin-4-yl)amino)methyl)-5-fluoro-2-methoxyphenyl)amino)-5-(trifluoromethyl)pyridin-4-yl)amino)-N-methylbenzamide] | – | 980 pM | 96%
CN1Cc2cccc(Oc3nc(Nc4ccc(CN[C@@H]5CCN(c6ccc7c(c6)C(=O)N(C6CCC(=O)NC6=O)C7=O)C5)c(F)c4)ncc3C(F)(F)F)c2C1=O (stereo partly drawn) [Compound A57, 2-(2,6-Dioxopiperidin-3-yl)-5-((R)-3-((2-fluoro-4-((4-((2-methyl-3-oxoisoindolin-4-yl)oxy)-5-(trifluoromethyl)pyrimidin-2-yl)amino)benzyl)amino)pyrrolidin-1-yl)isoindoline-1,3-dione] | – | 1000 pM | 86%
COc1cc(CN[C@@H]2CCN(c3ccc4c(c3)C(=O)N(C3CCC(=O)NC3=O)C4=O)C2)c(F)cc1Nc1ncc(C(F)(F)F)c(Oc2cccc3c2C(=O)N(C)C3)n1 (stereo partly drawn) [Compound A58, 2-(2,6-Dioxopiperidin-3-yl)-5-((R)-3-((2-fluoro-5-methoxy-4-((4-((2-methyl-3-oxoisoindolin-4-yl)oxy)-5-(trifluoromethyl)pyrimidin-2-yl)amino)benzyl)amino)pyrrolidin-1-yl)isoindoline-1,3-dione] | – | 900 pM | 84%
CN(c1nccnc1CNc1nc(Nc2ccc(CNC3CCN(c4ccc(C5CCC(=O)NC5=O)cc4)CC3)cc2)ncc1C(F)(F)F)S(C)(=O)=O (stereo not shown) [Compound B1, N-(3-(((2-((4-(((1-(4-(2,6-Dioxopiperidin-3-yl)phenyl)piperidin-4-yl)amino)-methyl)phenyl)amino)-5-(trifluoromethyl)pyrimidin-4-yl)amino)methyl)pyrazin-2-yl)-N-methyl-methanesulfonamide] | – | 1200 pM | 92%
CNC(=O)c1ccccc1Nc1nc(Nc2ccc(CNC3CCN(c4ccc(C5CCC(=O)NC5=O)cc4)CC3)cc2)ncc1C(F)(F)F (stereo not shown) [Compound B2, 2-((2-((4-(((1-(4-(2,6-Dioxopiperidin-3-yl)phenyl)piperidin-4-yl)amino)methyl)-phenyl)amino)-5-(trifluoromethyl)pyrimidin-4-yl)amino)-N-methylbenzamide] | – | 200 pM | 98%
